Data: patent US10780101B2, “Amide derivatives of squalamine for the treatment of infections” (VIRBAC, priority 2016, dated 2020)
≈ marks a conversion by molar mass, not a printed value.

What was measured:
[1] = tested on: S. aureus Human ATCC 25923; assay: MIC determination, S. aureus human ATCC 25923; type: cell-based; conditions: Staphylococcus aureus, ATCC25923; Gram-positive; Mueller-Hinton medium, 24 h at 37° C.
Experimental: (§1) A negative control (2 mL of sterile culture medium)
(§2) A positive control (1940 μL of culture medium+40 μL of DMSO+20 μL of the bacterial suspension) from a thawed biological strain (the biological strains are stored at −80° C. in glycerol).
(§3) The tubes were incubated at 37° C. for 24 hours at 100 rpm.
(§4) The microorganisms were handled under a type L2 laboratory fume cupboard and, before any handling, a UV cycle was programmed and only sterile material was used. […] The chemical compounds to be tested were prepared in a DMSO/methanol mixture (50/50) at a concentration of 5 mg/mL.
(§5) After 24 hours of incubation, a measurement of the optical density was taken using a spectrophotometer at 600 nm, collecting 100 μL of the bacterial suspension diluted in 900 μL of the sterile culture medium. This test required the use of a 96-well plate and the required volume of the microbial suspension to be seeded was calculated for an OD corresponding to a value equal to 0.01 in each well. In this plate, the first line corresponded to the negative control (195 μL of sterile culture medium in each well), the second line corresponded to the positive control (seeded culture medium supplemented with 2% of DMSO), and the third line was loaded twice with bacterial suspension; 8 μL of test product were placed in each well. Thereafter, a 0.5 cascade dilution was performed from this line.
(§6) The first column served as inhibition control. A sterile filter was then placed on the microplate, allowing the passage of gases but not of contaminants. The microplate was incubated at 37° C. under a humid atmosphere for 24 hours.
(§7) NB: The medium used is Mueller-Hinton (MH) medium for bacteria. All the tests were performed in duplicate.
(§8) After incubation, the filter was replaced with a transparent film, and an OD reading was then taken in an iEMS plate spectrophotometer at 620 nm. Calculation of the minimum inhibitory concentration (MIC) was performed.

S. aureus Animal (340) = assay: MIC determination, S. aureus animal (340); type: cell-based; conditions: Staphylococcus aureus; Gram-positive; Mueller-Hinton medium, 24 h at 37° C.
Experimental: as §1, §2, §3, §4, §5, §6, §7, §8

[2] = tested on: S. intermedius Animal (1051997); assay: MIC determination, S. intermedius animal (1051997); type: cell-based; conditions: Staphylococcus intermedius; Gram-positive; Mueller-Hinton medium, 24 h at 37° C.
Experimental: as §1, §2, §3, §4, §5, §6, §7, §8

[3] = tested on: E. faecalis Human ATCC 29212; assay: MIC determination, E. faecalis human ATCC 29212; type: cell-based; conditions: Enterococcus faecalis, ATCC29212; Gram-positive; Mueller-Hinton medium, 24 h at 37° C.
Experimental: as §1, §2, §3, §4, §5, §6, §7, §8

E. coli Human ATCC 28922 = assay: MIC determination, E. coli human ATCC 28922; type: cell-based; conditions: Escherichia coli, ATCC28922; Gram-negative; Mueller-Hinton medium, 24 h at 37° C.
Experimental: as §1, §2, §3, §4, §5, §6, §7, §8

E. coli Animal (1956) = assay: MIC determination, E. coli animal (1956); type: cell-based; conditions: Escherichia coli; Gram-negative; Mueller-Hinton medium, 24 h at 37° C.
Experimental: as §1, §2, §3, §4, §5, §6, §7, §8

[4] = tested on: P. aeruginosa Human ATCC 27853; assay: MIC determination, P. aeruginosa human ATCC 27853; type: cell-based; conditions: Pseudomonas aeruginosa, ATCC27853; Gram-negative; Mueller-Hinton medium, 24 h at 37° C.
Experimental: as §1, §2, §3, §4, §5, §6, §7, §8

[5] = tested on: P. aeruginosa Animal (1051575); assay: MIC determination, P. aeruginosa animal (1051575); type: cell-based; conditions: Pseudomonas aeruginosa; Gram-negative; Mueller-Hinton medium, 24 h at 37° C.
Experimental: as §1, §2, §3, §4, §5, §6, §7, §8

CHO-K1 cells = assay: WST1 cytotoxicity test on CHO-K1 cells; type: cell-based, Chinese hamster; conditions: Cricetulus griseus, CHO-K1, 24 h, read-out: IC50 (μg/mL) CHO
Experimental: Test WST1 was used to measure the cytotoxic activity of the products. This is a colorimetric test which makes it possible to measure the viability and the degree of cell proliferation. It is based on cleavage of the colorless tetrazolium salts WST-1 (4-[3-(4-iodophenyl)-2-(4-nitrophenyl)-2H-5-tetrazolio]-1,3-benzene disulfonate) with mitochondrial dehydrogenases to the yellow-colored formazan derivative, which may be quantified by spectrophotometry at 420-480 nm.
The WST1 test was performed on Chinese hamster ovary cells. The CHO-K1 cells (ATCC, USA) are kept in culture in McCoy's 5A medium supplemented with 10% fetal calf serum, 2 mM of L-glutamine and a mixture of penicillin-streptomycin (100 U/ml: 10 μg/ml). The culture is incubated at 37° C. under an atmosphere enriched in CO2 (5%), and subcultured every two days.
The cells are transferred into 96-well plates (25000 cells/mL) in whole McCoy's 5A medium, and maintained for 24 hours at 37° C. under a humid atmosphere enriched in CO2 (5%). Increasing concentrations of test products are added to the wells in double tests and 8 growth controls containing the cells in the medium alone are included in each series of tests. After 24 hours at 37° C. (5% CO2), the culture medium is removed, the cells are rinsed in phosphate buffer (PBS) and 50 μL of PBS containing 10% of reagent WST1 are added to each well. After 20 minutes of incubation at 37° C., the results are read by spectrophotometry at 450 nm.
The results are expressed in dose-response relationships, modeled by nonlinear regression analysis using the TableCurve software. The 50% inhibitory concentration (IC50) represents the concentration of product that is capable of reducing the cell viability by 50%.

P. aeruginosa (1051575) = assay: Potentiation of doxycycline activity (combination MIC); type: cell-based, Pseudomonas aeruginosa; conditions: for MIC - P. aeruginosa (1051575): content of compound of formula (I) to restore the doxycycline activity (at 2 μg/mL): in presence of doxycycline 2 μg/mL, 24 hours at 37° C.

Row | Compound | MIC [1] | MIC (S. aureus Animal (340)) | MIC [2] | MIC [3] | MIC (E. coli Human ATCC 28922) | MIC (E. coli Animal (1956)) | MIC [4] | MIC [5] | IC50 (CHO-K1 cells) | MIC - P. aeruginosa (1051575): content of compound of formula (I) to restore the doxycycline activity (at 2 μg/mL) (P. aeruginosa (1051575)) | synergism when administered with doxycycline (P. aeruginosa (1051575); doxycycline at 2 μg/mL)
1 | CC(C)NC(=O)CC[C@@H](C)[C@H]1CCC2C3CCC4C[C@@H](NCCNCCNCCNCCNCCN)CC[C@]4(C)C3CC[C@@]21C (stereo partly shown) [(24)] | 8 µg/mL (≈ 12.7 µM) | 8 µg/mL (≈ 12.7 µM) | 4 µg/mL (≈ 6.33 µM) | 16 µg/mL (≈ 25.3 µM) | 32 µg/mL (≈ 50.6 µM) | 64 µg/mL (≈ 101 µM) | 128 µg/mL (≈ 203 µM) | 128 µg/mL (≈ 203 µM) | 35 µg/mL (≈ 55.4 µM) | 8 µg/mL | 
2 | CC(C)NC(=O)CC[C@@H](C)[C@H]1CCC2C3C(C[C@H](O)[C@@]21C)[C@@]1(C)CC[C@H](NCCCN(C)CCCN)CC1C[C@H]3O (stereo partly drawn) [(26), 3β-(bis(3-aminopropyl)methylamine)-N-isopropylcholamide] | 28 µg/mL (≈ 48.5 µM) | 28 µg/mL (≈ 48.5 µM) | 14 µg/mL (≈ 24.3 µM) | 56 µg/mL (≈ 97.1 µM) | 28 µg/mL (≈ 48.5 µM) | 56 µg/mL (≈ 97.1 µM) | 112 µg/mL (≈ 194 µM) | 56 µg/mL (≈ 97.1 µM) | 80 µg/mL (≈ 139 µM) | 4 µg/mL | 
3 | CC(C)NC(=O)CC[C@@H](C)[C@H]1CCC2C3CCC4C[C@@H](NCCCNCCCCNCCCN)CC[C@]4(C)C3C[C@H](O)[C@@]21C (stereo partly drawn) [(30), 3β-spermino-N-isopropyldeoxycholamide] | 8 µg/mL (≈ 12.9 µM) | 8 µg/mL (≈ 12.9 µM) | 1 µg/mL (≈ 1.62 µM) | 15 µg/mL (≈ 24.3 µM) | 15 µg/mL (≈ 24.3 µM) | 30 µg/mL (≈ 48.5 µM) | 4 µg/mL (≈ 6.47 µM) | 4 µg/mL (≈ 6.47 µM) | 30 µg/mL (≈ 48.5 µM) | 1 µg/mL | 
4 | CC(C)NC(=O)CC[C@@H](C)[C@H]1CCC2C3C(C[C@H](O)[C@@]21C)[C@@]1(C)CC[C@H](NCCCNCCCCNCCCN)CC1C[C@H]3O (stereo partly drawn) [Compound (31), 3β-spermino-N-isopropylcholamide] | 4 µg/mL (≈ 6.31 µM) | 8 µg/mL (≈ 12.6 µM) | 4 µg/mL (≈ 6.31 µM) | 8 µg/mL (≈ 12.6 µM) | 16 µg/mL (≈ 25.2 µM) | 32 µg/mL (≈ 50.5 µM) | 64 µg/mL (≈ 101 µM) | 32 µg/mL (≈ 50.5 µM) | 40 µg/mL (≈ 63.1 µM) | 1 µg/mL | 
5 | CC(C)NC(=O)CC[C@@H](C)[C@H]1CCC2C3CCC4C[C@@H](NCCCNCCCCNCCCN)CC[C@]4(C)C3CC[C@@]21C (stereo partly drawn) [Compound (36), 3β-spermino-N-isopropyllithocholamide] | 3.75 µg/mL (≈ 6.23 µM) | 3.75 µg/mL (≈ 6.23 µM) | 1.87 µg/mL (≈ 3.11 µM) | 7.5 µg/mL (≈ 12.5 µM) | 7.5 µg/mL (≈ 12.5 µM) | 15 µg/mL (≈ 24.9 µM) | 15 µg/mL (≈ 24.9 µM) | 30 µg/mL (≈ 49.8 µM) | 36 µg/mL (≈ 59.8 µM) | 0.5 µg/mL | noteworthy synergism
6 | CNC(=O)CC[C@@H](C)[C@H]1CCC2C3C(CC[C@@]21C)[C@@]1(C)CC[C@H](NCCCN2CCN(CCCN)CC2)CC1C[C@H]3O (stereo partly drawn) [(12), 3β-(1,4-bis(3-aminopropyl)piperazine)-N-methylchenodeoxycholamide] | 8 µg/mL (≈ 13.6 µM) | 4 µg/mL (≈ 6.8 µM) | 2 µg/mL (≈ 3.4 µM) | 15 µg/mL (≈ 25.5 µM) | 30 µg/mL (≈ 51 µM) | 15 µg/mL (≈ 25.5 µM) | 60 µg/mL (≈ 102 µM) | 30 µg/mL (≈ 51 µM) | 50 µg/mL (≈ 85 µM) | 8 µg/mL | 
